Test results taken from ChEMBL document CHEMBL1152576, “E-Combretastatin and E-resveratrol structural modifications: antimicrobial and cancer cell growth inhibitory beta-E-nitrostyrenes” (Bioorg Med Chem, 2009).
In brackets after ≈: the same amount, converted by molar mass. Activity calls are given as the source filed them. The calls are words filed in the database; no cut-off is given here.

Legend:
NCI-H460 = assay: Cytotoxicity against human NCI-H460 cells after 48 hrs by sulforhodamine B assay; assay type: functional; conditions: NCI-H460, 48 h
MCF7 = assay: Cytotoxicity against human MCF7 cells after 48 hrs by sulforhodamine B assay; assay type: functional; conditions: MCF7, 48 h
Neisseria gonorrhoeae [1] = assay: Antimicrobial activity against Neisseria gonorrhoeae ATCC 49226 assessed clear zone of inhibition measured per disk by CLSI disk diffusion susceptibility assay; assay type: functional
BXPC-3 = assay: Cytotoxicity against human BxPC3 cells after 48 hrs by sulforhodamine B assay; assay type: functional; conditions: BXPC-3, 48 h
DU-145 = assay: Cytotoxicity against human DU145 cells after 48 hrs by sulforhodamine B assay; assay type: functional; conditions: DU-145, 48 h
Enterococcus faecalis [2] = assay: Antimicrobial activity against Enterococcus faecalis ATCC 29212 by broth microdilution susceptibility assay; assay type: functional
Escherichia coli [3] = assay: Antimicrobial activity against Escherichia coli ATCC 25922 assessed clear zone in inhibition per disk by CLSI disk diffusion susceptibility assay; assay type: functional
Candida albicans [4] = assay: Antimicrobial activity against Candida albicans ATCC 90028 assessed clear zone in inhibition per disk by CLSI disk diffusion susceptibility assay; assay type: functional
Staphylococcus aureus [5] = assay: Antimicrobial activity against Staphylococcus aureus ATCC 29213 assessed clear zone in inhibition per disk by CLSI disk diffusion susceptibility assay; assay type: functional
Staphylococcus aureus [6] = assay: Antimicrobial activity against Staphylococcus aureus ATCC 29213 by broth microdilution susceptibility assay; assay type: functional
Cryptococcus neoformans [7] = assay: Antifungal activity against Cryptococcus neoformans ATCC 90112 after 72 hrs by broth microdilution susceptibility assay; assay type: functional; conditions: ATCC 90112, 72 h
Enterobacter cloacae [8] = assay: Antimicrobial activity against Enterobacter cloacae ATCC 13047 by broth microdilution susceptibility assay; assay type: functional
SF-268 = assay: Cytotoxicity against human SF268 cells after 48 hrs by sulforhodamine B assay; assay type: functional; conditions: SF-268, 48 h
KM-20L2 = assay: Cytotoxicity against human KM20L2 cells after 48 hrs by sulforhodamine B assay; assay type: functional; conditions: KM-20L2, 48 h
[9] = test system: Stenotrophomonas maltophilia; assay: Antimicrobial activity against Stenotrophomonas maltophilia ATCC 13637 by broth microdilution susceptibility assay; assay type: functional
Streptococcus pneumoniae [10] = assay: Antimicrobial activity against Streptococcus pneumoniae ATCC 6303 by broth microdilution susceptibility assay; assay type: functional
Neisseria gonorrhoeae [11] = assay: Antimicrobial activity against Neisseria gonorrhoeae ATCC 49226 by broth microdilution susceptibility assay; assay type: functional
A498 = assay: Cytotoxicity against human A498 cells after 48 hrs by sulforhodamine B assay; assay type: functional
SK-MEL-5 = assay: Cytotoxicity against human SK-MEL-5 cells after 48 hrs by sulforhodamine B assay; assay type: functional
Enterococcus faecalis [12] = assay: Antimicrobial activity against Enterococcus faecalis ATCC 29212 assessed clear zone in inhibition per disk by CLSI disk diffusion susceptibility assay; assay type: functional
Candida albicans [13] = assay: Antifungal activity against Candida albicans ATCC 90028 after 24 hrs by broth microdilution susceptibility assay; assay type: functional; conditions: ATCC 90028, 24 h
Escherichia coli [14] = assay: Antimicrobial activity against Escherichia coli ATCC 25922 by broth microdilution susceptibility assay; assay type: functional
Cryptococcus neoformans [15] = assay: Antimicrobial activity against Cryptococcus neoformans ATCC 90112 assessed clear zone in inhibition per disk by CLSI disk diffusion susceptibility assay; assay type: functional
Cryptococcus neoformans [16] = assay: Antifungal activity against Cryptococcus neoformans ATCC 90112 after 48 hrs by broth microdilution susceptibility assay; assay type: functional; conditions: ATCC 90112, 48 h
Enterobacter cloacae [17] = assay: Antimicrobial activity against Enterobacter cloacae ATCC 13047 assessed clear zone in inhibition per disk by CLSI disk diffusion susceptibility assay; assay type: functional
[18] = test system: Stenotrophomonas maltophilia; assay: Antimicrobial activity against Stenotrophomonas maltophilia ATCC 13637 assessed clear zone in inhibition per disk by CLSI disk diffusion susceptibility assay; assay type: functional
Streptococcus pneumoniae [19] = assay: Antimicrobial activity against Streptococcus pneumoniae ATCC 6303 after 24 hrs by broth microdilution susceptibility assay; assay type: functional; conditions: ATCC 6303, 24 h
Micrococcus luteus [20] = assay: Antimicrobial activity against Micrococcus luteus Presque Isle 456 by broth microdilution susceptibility assay; assay type: functional
SF-295 = assay: Cytotoxicity against human SF295 cells after 48 hrs by sulforhodamine B assay; assay type: functional
OVCAR-3 = assay: Cytotoxicity against human OVCAR-3 cells after 48 hrs by sulforhodamine B assay; assay type: functional
[21] = Inhibition of tubulin polymerization
Streptococcus pneumoniae [22] = assay: Antimicrobial activity against Streptococcus pneumoniae ATCC 6303 assessed clear zone in inhibition per disk by CLSI disk diffusion susceptibility assay; assay type: functional
Candida albicans [23] = assay: Antifungal activity against Candida albicans ATCC 90028 after 48 hrs by broth microdilution susceptibility assay; assay type: functional; conditions: ATCC 90028, 48 h
Neisseria gonorrhoeae [24] = assay: Antimicrobial activity against Neisseria gonorrhoeae ATCC 49226 after 24 hrs by broth microdilution susceptibility assay; assay type: functional; conditions: ATCC 49226, 24 h
Micrococcus luteus [25] = assay: Antimicrobial activity against Micrococcus luteus Presque Isle 456 assessed clear zone in inhibition per disk by CLSI disk diffusion susceptibility assay; assay type: functional
P388 = assay: Cytotoxicity against mouse P388 cells after 48 hrs by sulforhodamine B assay; assay type: functional; conditions: P388, 48 h, read-out: ED50 (the source's name)
[26] = test system: Stenotrophomonas maltophilia; assay: Antimicrobial activity against Stenotrophomonas maltophilia ATCC 13637 after 24 hrs by broth microdilution susceptibility assay; assay type: functional; conditions: ATCC 13637, 24 h
Enterococcus faecalis [27] = assay: Antimicrobial activity against Enterococcus faecalis ATCC 29212 after 24 hrs by broth microdilution susceptibility assay; assay type: functional; conditions: ATCC 29212, 24 h
Micrococcus luteus [28] = assay: Antimicrobial activity against Micrococcus luteus Presque Isle 456 after 24 hrs by broth microdilution susceptibility assay; assay type: functional; conditions: Presque Isle 456, 24 h
Escherichia coli [29] = assay: Antimicrobial activity against Escherichia coli ATCC 25922 after 24 hrs by broth microdilution susceptibility assay; assay type: functional; conditions: ATCC 25922, 24 h
Staphylococcus aureus [30] = assay: Antimicrobial activity against Staphylococcus aureus ATCC 29213 after 24 hrs by broth microdilution susceptibility assay; assay type: functional; conditions: ATCC 29213, 24 h

O=[N+]([O-])/C=C/c1ccccc1O
GI50 (NCI-H460): 0.95 µg/mL (≈ 5.75 µM) | GI50 (MCF7): 0.47 µg/mL (≈ 2.85 µM) | MIC (Neisseria gonorrhoeae [1]): <0.78 µg | GI50 (BXPC-3): 1.1 µg/mL (≈ 6.66 µM) | GI50 (DU-145): 1 µg/mL (≈ 6.06 µM) | MIC (Enterococcus faecalis [2]): > 64 µg/mL | MIC (Escherichia coli [3]): 25 µg | MIC (Candida albicans [4]): 1.56 µg | MIC (Staphylococcus aureus [5]): 25 µg | MIC (Staphylococcus aureus [6]): > 64 µg/mL | MIC (Cryptococcus neoformans [7]): 8 µg/mL (≈ 48.4 µM) | MIC (Enterobacter cloacae [8]): > 64 µg/mL | GI50 (SF-268): 1.2 µg/mL (≈ 7.27 µM) | GI50 (KM-20L2): 1.6 µg/mL (≈ 9.69 µM) | MIC [9]: 32 µg/mL (≈ 194 µM) | MIC (Streptococcus pneumoniae [10]): 32 µg/mL (≈ 194 µM) | MIC (Neisseria gonorrhoeae [11]): 2 µg/mL (≈ 12.1 µM) | GI50 (A498): inactive | GI50 (SK-MEL-5): inactive | MIC (Enterococcus faecalis [12]): 50 µg | MFC (Candida albicans [13]): 32 µg/mL (≈ 194 µM) | MIC (Escherichia coli [14]): 64 µg/mL (≈ 388 µM) | MIC (Cryptococcus neoformans [15]): 0.78 µg | MFC (Cryptococcus neoformans [16]): 32 µg/mL (≈ 194 µM) | MIC (Enterobacter cloacae [17]): 25 µg | MIC [18]: 12.5 µg | MBC (Streptococcus pneumoniae [19]): > 64 µg/mL | MIC (Micrococcus luteus [20]): > 64 µg/mL | GI50 (SF-295): inactive | GI50 (OVCAR-3): inactive | IC50 [21]: 4.4 µM | MIC (Streptococcus pneumoniae [22]): 1.56 µg | MIC (Candida albicans [23]): 16 µg/mL (≈ 96.9 µM) | MBC (Neisseria gonorrhoeae [24]): 2 µg/mL (≈ 12.1 µM) | MIC (Micrococcus luteus [25]): 25 µg | EC50 (P388): 3.5 µg/mL (≈ 21.2 µM)

O=[N+]([O-])/C=C/c1ccc2c(c1)OCO2
GI50 (NCI-H460): 2 µg/mL (≈ 10.4 µM) | MBC [26]: > 64 µg/mL | MBC (Enterococcus faecalis [27]): > 64 µg/mL | GI50 (MCF7): 0.58 µg/mL (≈ 3 µM) | MBC (Micrococcus luteus [28]): > 64 µg/mL | MIC (Neisseria gonorrhoeae [1]): <0.78 µg | GI50 (BXPC-3): 1.7 µg/mL (≈ 8.8 µM) | GI50 (DU-145): 1.8 µg/mL (≈ 9.32 µM) | MIC (Enterococcus faecalis [2]): 64 µg/mL (≈ 331 µM) | MIC (Escherichia coli [3]): 6.25 µg | MIC (Candida albicans [4]): 1.56 µg | MIC (Staphylococcus aureus [5]): 6.25 µg | MIC (Staphylococcus aureus [6]): 32 µg/mL (≈ 166 µM) | MIC (Cryptococcus neoformans [7]): 8 µg/mL (≈ 41.4 µM) | MIC (Enterobacter cloacae [8]): > 64 µg/mL | MBC (Escherichia coli [29]): > 64 µg/mL | GI50 (SF-268): 1.9 µg/mL (≈ 9.84 µM) | GI50 (KM-20L2): 1.8 µg/mL (≈ 9.32 µM) | MBC (Staphylococcus aureus [30]): > 64 µg/mL | MIC [9]: 64 µg/mL (≈ 331 µM) | MIC (Streptococcus pneumoniae [10]): 16 µg/mL (≈ 82.8 µM) | MIC (Neisseria gonorrhoeae [11]): 1 µg/mL (≈ 5.18 µM) | GI50 (A498): inactive | GI50 (SK-MEL-5): inactive | MIC (Enterococcus faecalis [12]): 6.25 µg | MFC (Candida albicans [13]): 16 µg/mL (≈ 82.8 µM) | MIC (Escherichia coli [14]): 64 µg/mL (≈ 331 µM) | MIC (Cryptococcus neoformans [15]): 0.78 µg | MFC (Cryptococcus neoformans [16]): 16 µg/mL (≈ 82.8 µM) | MIC (Enterobacter cloacae [17]): 12.5 µg | MIC [18]: 6.25 µg | MBC (Streptococcus pneumoniae [19]): 32 µg/mL (≈ 166 µM) | MIC (Micrococcus luteus [20]): 64 µg/mL (≈ 331 µM) | GI50 (SF-295): inactive | GI50 (OVCAR-3): inactive | IC50 [21]: 5.3 µM | MIC (Streptococcus pneumoniae [22]): 0.78 µg | MIC (Candida albicans [23]): 8 µg/mL (≈ 41.4 µM) | MBC (Neisseria gonorrhoeae [24]): 2 µg/mL (≈ 10.4 µM) | MIC (Micrococcus luteus [25]): 50 µg | EC50 (P388): 2 µg/mL (≈ 10.4 µM)

O=[N+]([O-])/C=C/c1c[nH]c2ccccc12
GI50 (NCI-H460): 1.6 µg/mL (≈ 8.5 µM) | MBC [26]: > 64 µg/mL | MBC (Enterococcus faecalis [27]): > 64 µg/mL | GI50 (MCF7): 0.4 µg/mL (≈ 2.13 µM) | MBC (Micrococcus luteus [28]): > 64 µg/mL | MIC (Neisseria gonorrhoeae [1]): 3.12 µg | GI50 (BXPC-3): 1.4 µg/mL (≈ 7.44 µM) | GI50 (DU-145): 1.3 µg/mL (≈ 6.91 µM) | MIC (Enterococcus faecalis [2]): 64 µg/mL (≈ 340 µM) | MIC (Escherichia coli [3]): 25 µg | MIC (Candida albicans [4]): 12.5 µg | MIC (Staphylococcus aureus [5]): >100 µg | MIC (Staphylococcus aureus [6]): 64 µg/mL (≈ 340 µM) | MIC (Cryptococcus neoformans [7]): 16 µg/mL (≈ 85 µM) | MIC (Enterobacter cloacae [8]): > 64 µg/mL | GI50 (SF-268): 1.9 µg/mL (≈ 10.1 µM) | GI50 (KM-20L2): 1.4 µg/mL (≈ 7.44 µM) | MBC (Staphylococcus aureus [30]): > 64 µg/mL | MIC [9]: 64 µg/mL (≈ 340 µM) | MIC (Streptococcus pneumoniae [10]): 64 µg/mL (≈ 340 µM) | MIC (Neisseria gonorrhoeae [11]): 8 µg/mL (≈ 42.5 µM) | GI50 (A498): inactive | GI50 (SK-MEL-5): inactive | MIC (Enterococcus faecalis [12]): >100 µg | MFC (Candida albicans [13]): 64 µg/mL (≈ 340 µM) | MIC (Escherichia coli [14]): > 64 µg/mL | MIC (Cryptococcus neoformans [15]): 6.25 µg | MFC (Cryptococcus neoformans [16]): 32 µg/mL (≈ 170 µM) | MIC (Enterobacter cloacae [17]): >100 µg | MIC [18]: 25 µg | MBC (Streptococcus pneumoniae [19]): > 64 µg/mL | MIC (Micrococcus luteus [20]): 64 µg/mL (≈ 340 µM) | GI50 (SF-295): inactive | GI50 (OVCAR-3): inactive | IC50 [21]: 15 µM | MIC (Streptococcus pneumoniae [22]): 12.5 µg | MIC (Candida albicans [23]): 32 µg/mL (≈ 170 µM) | MBC (Neisseria gonorrhoeae [24]): 8 µg/mL (≈ 42.5 µM) | MIC (Micrococcus luteus [25]): 50 µg | EC50 (P388): 3.7 µg/mL (≈ 19.7 µM)
